From PMC10004634 (PLOS ONE, 2023)

Key:
Experiment in all cases: biochemical
Design in all cases: KINOMEscan scanMAX competition binding, DNA-tagged kinases, qPCR read-out, percent control at 300 nM
[1] = molecular target: EPHA6 (Homo sapiens, UniProt Q9UF33); settings: read-out: Percent control / Acalabrutinib
[2] = molecular target: PIK3CA(H1047Y) (Homo sapiens, UniProt P42336, H1047Y); settings: read-out: Percent control / Acalabrutinib
[3] = molecular target: T1, ABL1(T315I)-nonphosphorylated (Homo sapiens, UniProt P00519, T315I); settings: read-out: Percent control / Acalabrutinib
T1 construct: nonphosphorylated

[4] = molecular target: T2, ABL1(Q252H)-nonphosphorylated (Homo sapiens, UniProt P00519, Q252H); settings: read-out: Percent control / Acalabrutinib
T2 construct: nonphosphorylated

[5] = molecular target: T3, ABL1-nonphosphorylated (Homo sapiens, UniProt P00519); settings: read-out: Percent control / Acalabrutinib
T3 construct: nonphosphorylated

[6] = molecular target: T4, PYK2 (Homo sapiens, UniProt Q14289); settings: read-out: Percent control / Acalabrutinib
T4 construct: gene PTK2B

[7] = molecular target: TGFBR1 (Homo sapiens, UniProt P36897); settings: read-out: Percent control / Acalabrutinib
[8] = molecular target: MAP3K3 (Homo sapiens, UniProt Q99759); settings: read-out: Percent control / Acalabrutinib
MAP3K3, sequence (Q99759 whole entry): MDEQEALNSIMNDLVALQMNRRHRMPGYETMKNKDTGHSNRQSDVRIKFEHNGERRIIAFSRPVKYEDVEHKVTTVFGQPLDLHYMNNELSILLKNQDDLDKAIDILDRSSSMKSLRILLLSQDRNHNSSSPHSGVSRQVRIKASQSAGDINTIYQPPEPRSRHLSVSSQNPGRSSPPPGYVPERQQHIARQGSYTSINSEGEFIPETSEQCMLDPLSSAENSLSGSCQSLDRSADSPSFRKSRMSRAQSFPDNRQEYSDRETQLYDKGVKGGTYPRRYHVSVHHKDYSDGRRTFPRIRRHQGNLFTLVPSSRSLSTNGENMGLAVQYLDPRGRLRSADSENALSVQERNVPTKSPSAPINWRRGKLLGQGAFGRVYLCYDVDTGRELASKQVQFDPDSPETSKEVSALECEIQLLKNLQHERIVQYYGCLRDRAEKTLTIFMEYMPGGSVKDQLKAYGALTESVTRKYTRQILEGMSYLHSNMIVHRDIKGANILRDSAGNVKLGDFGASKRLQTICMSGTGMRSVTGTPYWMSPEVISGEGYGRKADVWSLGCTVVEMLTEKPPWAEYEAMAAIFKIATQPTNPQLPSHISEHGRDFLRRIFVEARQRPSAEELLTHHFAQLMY

[9] = molecular target: DAPK3 (Homo sapiens, UniProt O43293); settings: read-out: Percent control / Ibrutinib
[10] = molecular target: MARK3 (Homo sapiens, UniProt P27448); settings: read-out: Percent control / Ibrutinib
MARK3, sequence (P27448 whole entry): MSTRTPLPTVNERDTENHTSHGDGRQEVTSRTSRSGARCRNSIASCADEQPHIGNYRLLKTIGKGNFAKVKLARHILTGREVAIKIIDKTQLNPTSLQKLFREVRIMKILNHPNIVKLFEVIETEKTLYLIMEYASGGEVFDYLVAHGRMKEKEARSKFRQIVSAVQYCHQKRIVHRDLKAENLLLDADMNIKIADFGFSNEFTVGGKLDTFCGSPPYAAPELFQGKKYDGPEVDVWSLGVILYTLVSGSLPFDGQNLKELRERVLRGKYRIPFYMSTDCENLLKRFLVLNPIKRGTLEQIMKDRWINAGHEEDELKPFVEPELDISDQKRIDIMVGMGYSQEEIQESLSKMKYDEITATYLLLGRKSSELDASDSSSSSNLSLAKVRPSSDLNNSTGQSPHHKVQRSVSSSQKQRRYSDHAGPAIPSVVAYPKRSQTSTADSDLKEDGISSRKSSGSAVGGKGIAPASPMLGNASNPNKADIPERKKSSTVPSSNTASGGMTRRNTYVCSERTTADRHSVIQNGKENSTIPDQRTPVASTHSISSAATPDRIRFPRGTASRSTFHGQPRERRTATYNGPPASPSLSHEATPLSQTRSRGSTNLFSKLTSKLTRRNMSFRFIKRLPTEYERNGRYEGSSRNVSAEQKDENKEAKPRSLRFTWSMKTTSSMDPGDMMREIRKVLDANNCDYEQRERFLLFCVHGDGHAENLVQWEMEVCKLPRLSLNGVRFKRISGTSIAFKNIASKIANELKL

[11] = molecular target: MARK1 (Homo sapiens, UniProt Q9P0L2); settings: read-out: Percent control / Tirabrutinib
MARK1, sequence (Q9P0L2 whole entry): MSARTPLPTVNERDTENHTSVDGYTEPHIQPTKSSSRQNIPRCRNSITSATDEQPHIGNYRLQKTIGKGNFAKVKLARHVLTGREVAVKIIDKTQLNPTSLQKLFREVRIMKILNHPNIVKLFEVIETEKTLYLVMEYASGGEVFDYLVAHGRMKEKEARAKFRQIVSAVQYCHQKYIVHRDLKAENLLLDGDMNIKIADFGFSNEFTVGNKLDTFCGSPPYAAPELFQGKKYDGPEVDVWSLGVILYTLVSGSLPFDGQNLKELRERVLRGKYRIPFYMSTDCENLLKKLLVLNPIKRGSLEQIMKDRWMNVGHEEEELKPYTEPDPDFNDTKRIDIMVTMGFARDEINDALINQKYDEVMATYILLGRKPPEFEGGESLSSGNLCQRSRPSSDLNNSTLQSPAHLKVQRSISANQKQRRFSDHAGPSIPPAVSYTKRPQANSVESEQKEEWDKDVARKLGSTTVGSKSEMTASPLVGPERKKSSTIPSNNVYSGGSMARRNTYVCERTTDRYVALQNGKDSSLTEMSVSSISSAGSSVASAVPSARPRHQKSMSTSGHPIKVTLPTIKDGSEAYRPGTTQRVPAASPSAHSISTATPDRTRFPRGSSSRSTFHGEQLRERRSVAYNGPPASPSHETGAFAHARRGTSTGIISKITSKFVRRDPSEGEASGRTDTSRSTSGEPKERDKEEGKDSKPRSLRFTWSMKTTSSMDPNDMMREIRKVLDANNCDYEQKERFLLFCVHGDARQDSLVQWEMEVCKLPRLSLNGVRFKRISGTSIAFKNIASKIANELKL

[12] = molecular target: EGFR(L861Q) (Homo sapiens, UniProt P00533, L861Q); settings: read-out: Percent control / Tirabrutinib
[13] = molecular target: EGFR(G719S) (Homo sapiens, UniProt P00533, G719S); settings: read-out: Percent control / Tirabrutinib
[14] = molecular target: T5, MEK4 (Homo sapiens, UniProt P45985); settings: read-out: Percent control / Zanubrutinib
T5 construct: gene MAP2K4

[15] = molecular target: T6, DCAMKL1 (Homo sapiens, UniProt O15075); settings: read-out: Percent control / Zanubrutinib
T6 construct: gene DCLK1

[16] = molecular target: MTOR (Homo sapiens, UniProt P42345); settings: read-out: Percent control / Zanubrutinib
[17] = molecular target: T7, MEK6 (Homo sapiens, UniProt P52564); settings: read-out: Percent control / Zanubrutinib
T7 construct: gene MAP2K6

[18] = molecular target: T8, MST1 (Homo sapiens, UniProt Q13043); settings: read-out: Percent control / Zanubrutinib
T8 construct: gene STK4
T8 sequence (Q13043 whole entry): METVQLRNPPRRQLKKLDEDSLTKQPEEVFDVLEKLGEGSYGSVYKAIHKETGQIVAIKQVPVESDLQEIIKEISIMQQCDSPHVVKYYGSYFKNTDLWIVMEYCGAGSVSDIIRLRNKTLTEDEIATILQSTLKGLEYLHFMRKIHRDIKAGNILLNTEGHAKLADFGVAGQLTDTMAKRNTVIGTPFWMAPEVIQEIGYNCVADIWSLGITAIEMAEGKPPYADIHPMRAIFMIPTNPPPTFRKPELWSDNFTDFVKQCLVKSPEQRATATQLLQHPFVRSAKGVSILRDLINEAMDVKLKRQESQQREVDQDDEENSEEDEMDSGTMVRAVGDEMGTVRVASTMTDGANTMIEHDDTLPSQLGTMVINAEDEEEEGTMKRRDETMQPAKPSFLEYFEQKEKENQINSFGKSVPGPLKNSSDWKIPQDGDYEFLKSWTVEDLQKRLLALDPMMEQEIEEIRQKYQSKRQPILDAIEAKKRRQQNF

[19] = molecular target: LRRK2(G2019S) (Homo sapiens, UniProt Q5S007, G2019S); settings: read-out: Percent control / Zanubrutinib
[20] = molecular target: T9, TRKC (Homo sapiens, UniProt Q16288); settings: read-out: Percent control / Zanubrutinib
T9 construct: gene NTRK3

[21] = molecular target: PLK2 (Homo sapiens, UniProt Q9NYY3); settings: read-out: Percent control / Zanubrutinib
[22] = molecular target: PIK3CA(C420R) (Homo sapiens, UniProt P42336, C420R); settings: read-out: Percent control / Zanubrutinib
PIK3CA(C420R), sequence (P42336 whole entry C420R): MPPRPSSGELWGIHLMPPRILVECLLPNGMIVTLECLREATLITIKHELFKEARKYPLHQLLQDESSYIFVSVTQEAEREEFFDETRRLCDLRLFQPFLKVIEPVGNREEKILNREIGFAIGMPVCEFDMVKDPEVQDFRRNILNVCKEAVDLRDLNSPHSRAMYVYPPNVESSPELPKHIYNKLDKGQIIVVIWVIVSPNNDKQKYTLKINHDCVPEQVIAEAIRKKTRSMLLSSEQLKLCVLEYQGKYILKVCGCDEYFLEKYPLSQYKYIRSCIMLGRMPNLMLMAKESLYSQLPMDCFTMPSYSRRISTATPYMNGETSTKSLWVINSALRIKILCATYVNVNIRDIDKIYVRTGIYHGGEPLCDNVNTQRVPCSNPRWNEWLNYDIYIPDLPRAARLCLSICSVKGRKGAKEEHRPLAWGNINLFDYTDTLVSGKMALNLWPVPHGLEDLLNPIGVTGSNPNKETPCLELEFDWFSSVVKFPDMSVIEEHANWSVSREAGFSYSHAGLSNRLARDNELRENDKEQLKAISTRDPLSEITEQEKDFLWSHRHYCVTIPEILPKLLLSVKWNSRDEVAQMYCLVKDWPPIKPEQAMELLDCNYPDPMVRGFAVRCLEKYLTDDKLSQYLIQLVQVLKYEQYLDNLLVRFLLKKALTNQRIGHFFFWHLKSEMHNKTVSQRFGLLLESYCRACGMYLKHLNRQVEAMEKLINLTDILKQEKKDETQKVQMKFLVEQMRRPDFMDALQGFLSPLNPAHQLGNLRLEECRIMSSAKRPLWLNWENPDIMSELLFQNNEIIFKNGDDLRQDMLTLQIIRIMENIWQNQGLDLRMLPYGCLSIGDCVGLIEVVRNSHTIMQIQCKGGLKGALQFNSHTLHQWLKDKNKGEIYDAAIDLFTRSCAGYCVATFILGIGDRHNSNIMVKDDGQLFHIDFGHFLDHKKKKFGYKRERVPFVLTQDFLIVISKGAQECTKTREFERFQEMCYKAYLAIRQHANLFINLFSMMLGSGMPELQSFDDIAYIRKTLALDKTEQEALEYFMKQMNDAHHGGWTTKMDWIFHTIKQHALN

[23] = molecular target: TGFBR2 (Homo sapiens, UniProt P37173); settings: read-out: Percent control / Zanubrutinib

PIK3CA(H1047Y), sequence (P42336 whole entry H1047Y): as the sequence (P42336 whole entry C420R) above, with R420C, H1047Y counted along it
EPHA6, sequence (Q9UF33 whole entry): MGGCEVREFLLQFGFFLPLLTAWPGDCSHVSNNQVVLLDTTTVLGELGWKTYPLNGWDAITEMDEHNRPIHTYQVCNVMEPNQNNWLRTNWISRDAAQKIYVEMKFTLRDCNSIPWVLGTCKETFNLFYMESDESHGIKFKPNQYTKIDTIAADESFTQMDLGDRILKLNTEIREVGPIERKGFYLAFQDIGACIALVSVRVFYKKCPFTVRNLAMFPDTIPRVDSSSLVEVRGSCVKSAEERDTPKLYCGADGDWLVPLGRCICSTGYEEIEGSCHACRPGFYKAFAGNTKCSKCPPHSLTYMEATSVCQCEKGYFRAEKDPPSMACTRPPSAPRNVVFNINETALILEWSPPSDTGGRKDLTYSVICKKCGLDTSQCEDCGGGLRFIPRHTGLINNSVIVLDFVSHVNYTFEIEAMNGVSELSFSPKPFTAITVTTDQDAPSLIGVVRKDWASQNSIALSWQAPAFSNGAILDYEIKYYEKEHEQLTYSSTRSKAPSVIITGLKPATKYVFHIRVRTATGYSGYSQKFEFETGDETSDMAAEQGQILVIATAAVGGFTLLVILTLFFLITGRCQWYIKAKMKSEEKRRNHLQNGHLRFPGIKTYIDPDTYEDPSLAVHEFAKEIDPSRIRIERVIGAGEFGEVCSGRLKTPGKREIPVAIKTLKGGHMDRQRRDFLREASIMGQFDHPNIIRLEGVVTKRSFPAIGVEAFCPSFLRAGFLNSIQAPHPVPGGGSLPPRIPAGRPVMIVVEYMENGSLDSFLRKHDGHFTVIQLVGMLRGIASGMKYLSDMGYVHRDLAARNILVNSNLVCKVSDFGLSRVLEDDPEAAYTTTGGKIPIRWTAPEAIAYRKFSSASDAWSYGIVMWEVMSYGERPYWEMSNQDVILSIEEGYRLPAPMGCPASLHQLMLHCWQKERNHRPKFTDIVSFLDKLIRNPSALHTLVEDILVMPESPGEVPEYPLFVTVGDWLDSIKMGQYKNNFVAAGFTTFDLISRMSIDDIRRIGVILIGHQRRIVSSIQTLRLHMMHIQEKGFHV

CC#CC(=O)N1CCC[C@H]1c1nc(-c2ccc(C(=O)Nc3ccccn3)cc2)c2c(N)nccn12 [Acalabrutinib]
remaining binding at 0.3 µM [1]: 93% | remaining binding at 0.3 µM [2]: 70% | remaining binding at 0.3 µM [3]: 96% | remaining binding at 0.3 µM [4]: 84% | remaining binding at 0.3 µM [5]: 87% | remaining binding at 0.3 µM [6]: 89% | remaining binding at 0.3 µM [7]: 96% | remaining binding at 0.3 µM [8]: 86%

C=CC(=O)N1CCC[C@@H](n2nc(-c3ccc(Oc4ccccc4)cc3)c3c(N)ncnc32)C1 [Ibrutinib]
remaining binding at 0.3 µM [9]: 92% | remaining binding at 0.3 µM [10]: 99%

CC#CC(=O)N1CC[C@@H](n2c(=O)n(-c3ccc(Oc4ccccc4)cc3)c3c(N)ncnc32)C1 [Tirabrutinib]
remaining binding at 0.3 µM [11]: 88% | remaining binding at 0.3 µM [12]: 86% | remaining binding at 0.3 µM [13]: 85%

C=CC(=O)N1CCC([C@@H]2CCNc3c(C(N)=O)c(-c4ccc(Oc5ccccc5)cc4)nn32)CC1 [Zanubrutinib]
remaining binding at 0.3 µM [14]: 93% | remaining binding at 0.3 µM [15]: 100% | remaining binding at 0.3 µM [16]: 88% | remaining binding at 0.3 µM [17]: 75% | remaining binding at 0.3 µM [18]: 90% | remaining binding at 0.3 µM [19]: 47% | remaining binding at 0.3 µM [20]: 97% | remaining binding at 0.3 µM [21]: 100% | remaining binding at 0.3 µM [22]: 67% | remaining binding at 0.3 µM [23]: 90%
